Assay results published in US10946109B2, “Polymer-type fluorescent molecule probe” (HIROSHI MAEDA, priority 2011, dated 2021).

Test system: Human pancreatic cancer cells PC1.0
Test: cells
Conditions: light or radiation study
Procedure: Human pancreatic cancer cells PC1.0 were plated in 96 well culture plate at 1000 cells/well and cultured overnight. Then, methylene blue (MB) or SMA-methylene blue (SMA-MB) micelle was added to the cultured cells above, and allowed to culture another 48 hours. Light irradiation was carried out using tungsten xenon lamp at 15 cm distance from the cell surface for 20 min. Then, the survival rate of the cells was quantified by MTT Method.

IC50: 500 nM | IC50 (48 h): 4500 nM
SMILES: CN(C)c1ccc2nc3ccc(=[N+](C)C)cc-3sc2c1 [Methylene blue, methylene blue]
